Assay results published in patent publication EP3516395B1, “METHOD FOR DETERMINING AFFINITY BETWEEN LIGANDS AND A TARGET” (Plant Advanced Technologies Pat, priority 2016, dated 2018).

Tests used:
[1] = system: hyaluronidase de testicules bovins; experiment: Affinity by binding, ultrafiltration and UPLC-MS (Example 5); settings: chromatogram B, figure 3
Description: (§1) Une solution de travail de hyaluronidase de testicules bovins à 5 mg/mL est préparée en dissolvant de la poudre de l'enzyme lyophilisée dans un tampon phosphate salin à 50 mM, avec un pH de 7,0. Une solution de travail de trypsine (la cible témoin) est préparée de la même manière que celle de hyaluronidase. L'échantillon est préparé en utilisant l'un des solvants suivants : des glycols, DMSO (diméthylsulfoxide), l'éthanol pur ou en solution dans l'eau. La concentration dans l'échantillon de ligand initial doit être dans la gamme de 0,75 à 1 mM. Le ligand choisi (quercétine) est un inhibiteur connu de l'hyaluronidase (Asian J. Chem. 2013, 25, 10262-10266). Un échantillon de référence est préparé également en diluant l'échantillon de 10 à 20 fois dans une solution de trois quarts de volume d'acétonitrile et d'un quart de volume d'eau. […]

trypsine [2] = experiment: Affinity by binding, ultrafiltration and UPLC-MS, control target (Example 5); settings: chromatogram C, figure 3
Description: as §1

hyaluronidase = settings: 200 µM; Asian J. Chem. 2013, 25, 10262-10266; cited from earlier work
trypsine [3] = settings: 2660 µM; International Journal of Food Science & Technology 2014, 49, 1063-1069; cited from earlier work
tyrosinase de champignon = experiment: Relative affinity by competitive binding, ultrafiltration and UPLC-MS/UV (Example 1); settings: equimolar ligands
Description: Une solution de travail de tyrosinase de champignon à 1.25 mg/mL est préparée en dissolvant de la poudre de l'enzyme lyophilisée dans 50 mM d'acétate d'ammonium, avec un pH de 7.0. L'échantillon est préparé en utilisant l'un des solvants suivants : des glycols, DMSO (diméthylsulfoxide), l'éthanol, pur ou en solution dans l'eau. La concentration dans l'échantillon des ligands initiaux est équimolaire et doit être dans la gamme de 0,75 à 1 mM. Les ligands choisis étaient des inhibiteurs connus de la tyrosinase isolés depuis des racines de murier noir (Morus nigra) : la moracénine A, moracénine B et la kuwanone C. Un échantillon de référence est préparé également en diluant l'échantillon de 10 à 20 fois dans une solution d'eau et d'un quart de volume d'acétonitrile.
• 1. Étape de préconditionnement - Des puits à membrane filtrante sont pré-conditionnées avec un volume de 500 µl d'une solution à 85% d'acétate d'ammonium et 15% d'éthanol qui est passé à travers la membrane avec une centrifugation de 14000 g pendant 60 secondes. • 2. Étape de liaison - La préparation de tyrosinase (1.25 mg/mL, 75 µL) est mélangée avec 5 µl de l'échantillon dans un tube d'Eppendorf en plastique, puis est incubée pendant 5 min. Dans ce mélange, on a 9,16 µM de tyrosinase et une gamme de 46,88 µM à 62,5 µM de ligands (moracénine A, moracénine B et kuwanone C) soit un ratio ligands/cible allant de 5,12 à 6,83. • 3. Étape de lavage - le mélange de l'enzyme et de l'échantillon est déposé dans un puits préconditionné à l'étape de préconditionnement, puis centrifugé à 14000 g jusqu'à l'élimination de l'essentiel du solvant. Les complexes enzyme-ligands restent à la surface de la membrane du filtre puis sont à nouveau suspendu dans un volume de 100 µL de la même solution à 85% d'acétate d'ammonium et 15% d'éthanol et centrifugé à 14000 g jusqu'à élimination du solvant. Cette procédure est répétée trois fois et élimine tous les composés qui ne sont pas liés à l'enzyme. • 4. Étape de séparation - Les complexes enzyme-ligands retenus dans le filtre sont à nouveau suspendus dans un volume de 10 µL d'eau ultra-pure, puis sont mélangés avec un volume de 40 µL d'acétonitrile pour dénaturer et précipiter l'enzyme et, en même temps libérer les ligands. Le mélange est centrifugé à 21000 g pendant 10 min pour séparer le précipité du surnageant. • 5. Étape d'analyse - Ledit surnageant formant la solution traitée est analysé par chromatographie en phase liquide couplée à une spectrométrie de masse, connue également par l'acronyme UPLC-MS. L'échantillon de référence est analysé également de la même manière, en utilisant les mêmes conditions d'analyse. Les affinités relatives sont calculées selon la méthode décrite ci-après. De préférence, l'échantillon de référence et la solution traitée sont analysés séquentiellement pour éliminer des dispersions dues aux réglages de l'appareillage.
Une analyse par chromatographie en phase liquide fournit un chromatogramme tel que montré par les figures 1 et 2. Le chromatogramme représente une intensité de signal en fonction du temps de rétention dans une colonne. Le signal présente différents pics d'intensité variable. Chaque pic est associé à l'un des ligands présent dans l'échantillon et la solution traitée. • 1. Normalisation de l'intensité du signal analytique pour les ligands dans l'échantillon de référence. Pour chaque chaque ligand CEi dans l'échantillon de référence, on établit des facteurs de normalisation NFeq dudit ligand CEi par comparaison au ligand de référence REF, selon l'équation suivante : NFeq,CEi = (ISeq,CEi)/(ISeq,REF) [formula] où : • NF est un facteur de normalisation; • ISeq,CEi est l'intensité du signal analytique pour le ligand CEi dans l'échantillon; • ISeq,REF est l'intensité du signal analytique pour le ligand de référence REF dans l'échantillon. L'intensité peut être choisie parmi l'aire du pic ou la valeur maximale du pic. Le facteur de normalisation du ligand de référence vaut toujours 1. • 2. […]

tyrosinase = settings: literature values, 50% reduction of enzyme activity; cited from earlier work

Row | Compound | affinité [1] | affinité (trypsine [2]) | inhibition de l'hyaluronidase (hyaluronidase) [%] | inhibition de la trypsine (trypsine [3]) [%] | Facteur de normalisation, solution traitée (tyrosinase de champignon; NFTB, peak area UV 270 nm relative to reference ligand moracénine B) | Affinités relatives (tyrosinase de champignon; RA = NFTB/NFeq, reference ligand moracénine B) | IC50 (tyrosinase) [µM]
1 | O=c1c(O)c(-c2ccc(O)c(O)c2)oc2cc(O)cc(O)c12 [quercétine] | affinité importante | très faible affinité | 54 | 46 | – | – | –
2 | moracénine A | – | – | – | – | 1,29 | 1,50 | 10.3
